The target in one experiment is T1, M3 muscarinic receptors (Homo sapiens, UniProt P20309).
T1 construct: Parotid gland tissue was collected from patients aged 40-55 years undergoing surgery; endogenous in cells; host or cells: primary acinar-like cells (passage 3-4) from patients' parotid gland tissue, on 2.5D or in 3D HA hydrogels
The experiment in a line: Intracellular calcium release (Fluo-4) in acini-like structures on 2.5D / in 3D HA hydrogels treated with acetylcholine. In kind it is cell-based. On the procedure:
Intracellular calcium [Cai] release studies utilized the calcium indicator dye, Fluo-4 (Invitrogen). Cells were seeded at 1×10^5 cells/gel in cell culture inserts as before. Cells on 2.5D and in 3D hydrogels were cultured for 12 days. Fluo-4 was suspended in 0.8% (w/v) pluronic acid and mixed with 8 mL of 1× Hanks' balanced salt solution (HBSS) without calcium. Cell-seeded hydrogels were incubated with Fluo-4 suspended in pluronic acid for 30 min at 37° C. After 30 min, cells were washed twice with 1×HBSS, and incubated for 30 min in HBSS. After loading and recovery, hydrogels were imaged using a Zeiss LSM 5-live high-speed confocal microscope. Baseline fluorescence was established for 30 sec at 488 nm. Cell-seeded hydrogels then were treated with various concentrations (ranging from 50 μM-500 μM) of the muscarinic agonist acetylcholine chloride. 2.5D hydrogels were flipped so that cells were on the bottom of the chamber slides. 50 μL of the agonist was added to the bottom of the chamber containing 50 μL medium. 3D hydrogels were suspended in 100 μL of medium and treated with 100 μL of agonist. Resulting increases in Cai levels were captured in a series of image scans and by graph plot.
To stimulate fluid secretion, salivary acinar-like cells were treated with acetylcholine. Addition of 50 μM acetylcholine induced a robust calcium response in self-assembling acini-like structures cultured on 2.5D hydrogels (FIG. 27A). Acini-like structures on hydrogels were imaged without saline buffer to minimize movement of hydrogels in the liquid. The calcium response peak seen at ˜5 min can be attributed to the diffusion time needed by the neurotransmitter to pass through the hydrogel to the cells. Treatment with 100 μM acetylcholine produced calcium oscillations lasting over 20 min in multiple cells within a self-assembled acinus-like structure (FIG. 27B). Oscillations from different structures varied in intensity. […] Experiments were performed three times with each agonist concentration, on separate hydrogel cultures. Data were recorded from 3-4 acini-like structures each time. […] Positive controls used a hypotonic solution to induce a calcium response.
Treatment with 50 μM acetylcholine induced calcium oscillations that lasted over 20 minutes in spheroid structures encapsulated in 3D hydrogels (FIG. 27D). […] Compared to the response seen among 2.5D cultures, the increase in [Ca^2+] was quicker in 3D, where cells responded to acetylcholine treatment within 30 seconds while cells in 2.5D took nearly 300 seconds. […] Thus, cell response to acetylcholine agonist in 3D was faster, more intense, and more prolonged than cell response in 2.5D.
(In general: Calcium assays in cells follow changes in intracellular calcium, usually with a dye or a luminescent sensor.)

Another experiment relates to β adrenergic receptors. The experiment can be described thus: Exocytic granule production and α-amylase staining in salivary acinar-like cells on/in HA hydrogels. It is filed as cell-based, human. Particulars: 50 μM. On the procedure: Cells seeded (1×10^5 cells/gel) on/in hydrogels were treated with varying concentrations (10 μM to 100 μM) of isoproterenol hydrochloride (Santa Cruz Biotechnology) and norepinephrine hydrochloride (Sigma), each of which induce granule production and exocytosis, for various time points from 15 min-2 h. After treatment, culture medium was removed and cells were fixed immediately with 100% methanol and stained with α-amylase for microscopic analysis. Functionality of salivary acinar-like cells was assessed by response to neurotransmitter agonists. Norepinephrine binding to the β adrenergic receptors activates the protein secretion pathway. In this study, the sympathomimetic β adrenergic agonists, norepinephrine and isoproterenol, were used to stimulate protein production and exocytosis. Salivary acinar-like cells cultured on/in hydrogels were treated with 50 μM isoproterenol for 15 min to 1 hr. After treatment, cells were immediately fixed and stained, then analyzed for granule formation and α-amylase expression. FIGS. 21-25 quantify the extent of amylase response, using the intensity of fluorescence staining as a surrogate. […] Exocytosing granules stained in red for α-amylase are seen budding out from the cell membrane in FIG. 21C, E, F. Granule production has been quantified in FIG. 26. Upon stimulation, acini-like structures in 3D also secreted α-amylase into the hydrogel (FIG. 21E, F). α-Amylase staining is quantified in FIGS. 23-25.

For the next experiment, the target named is HP. The conditions noted are these: read-out: Dissociation constant (Kd) of complex with HP; cited from earlier work.
Experiment [1] has as its system spheroids in 3D HA hydrogels. The experiment in a line: FGF7 treatment of spheroids in 3D HA hydrogels. The conditions noted are these: 25 ng/mL FGF7 daily for 10 d and 12 d. It is filed as cell-based, human. On the procedure:
FIG. 14 is a picture depicting organized spheroids. […] (a) Untreated cells at 20 d culture. (b,c) Spheroids treated with 25 ng/mL FGF7 daily for (b) 10 d and (c) 12 d.
Functional neotissue glands must advance beyond spherical lumen to initiate directional delivery of secretory products and recreate the differentiated roles of fluid producing acinar and fluid resorbing ductal cells. Recent work identified the specific roles of FGF7 and FGF10 in inducing ductal elongation and branching, respectively. These roles are tied to the cells' perceived gradients of each GF from a point source, defined by diffusion through ECM and controlled by their binding to HS (in Pln and other proteoglycans). […] When delivered through media, FGF7 may induce overall larger spheroids (as expected, when FGF7 is not delivered from a directional point source). […] HGPs are an optimal mechanism for directional controlled delivery of FGF7 and FGF10.

Where a name gives a salt, the structure may show the parent alone.

T1 sequence (P20309 whole entry): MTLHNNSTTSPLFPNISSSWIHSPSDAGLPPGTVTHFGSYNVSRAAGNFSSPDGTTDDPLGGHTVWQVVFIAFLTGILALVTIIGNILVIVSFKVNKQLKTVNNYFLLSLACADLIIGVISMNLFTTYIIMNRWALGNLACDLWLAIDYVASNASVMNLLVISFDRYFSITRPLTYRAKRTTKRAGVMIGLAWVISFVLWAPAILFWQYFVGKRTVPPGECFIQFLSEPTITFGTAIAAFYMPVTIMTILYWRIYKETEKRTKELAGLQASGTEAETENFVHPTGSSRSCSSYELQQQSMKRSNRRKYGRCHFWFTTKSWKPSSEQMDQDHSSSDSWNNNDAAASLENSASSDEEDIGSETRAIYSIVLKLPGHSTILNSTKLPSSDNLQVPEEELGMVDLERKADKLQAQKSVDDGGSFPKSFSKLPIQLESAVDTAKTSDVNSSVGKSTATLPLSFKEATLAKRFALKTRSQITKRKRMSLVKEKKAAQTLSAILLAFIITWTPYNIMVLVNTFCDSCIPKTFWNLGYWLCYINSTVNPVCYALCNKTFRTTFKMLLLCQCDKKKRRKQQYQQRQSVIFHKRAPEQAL

For `CC(=O)OCC[N+](C)(C)C.[Cl-]` [ACh, acetylcholine chloride], the “Average Peak Height (Intensity)” value at M3 muscarinic receptors (2.5D hydrogel, 50 μM ACh) amounted to 58 ± 11; at M3 muscarinic receptors (2.5D hydrogel, 100 μM ACh), 10 ± 3; on M3 muscarinic receptors (3D hydrogel, 50 μM ACh), 39 ± 6; at M3 muscarinic receptors (3D hydrogel, 100 μM ACh) it was 14 ± 8. Besides, the “Average Peak Length” value is given as 42 ± 21 s at M3 muscarinic receptors (2.5D hydrogel, 50 μM ACh); 46 ± 9 s at M3 muscarinic receptors (2.5D hydrogel, 100 μM ACh); 164 ± 8 s on M3 muscarinic receptors (3D hydrogel, 50 μM ACh); 180 ± 34 s at M3 muscarinic receptors (3D hydrogel, 100 μM ACh). Also, the “Percent Responders” value on M3 muscarinic receptors (2.5D hydrogel, 50 μM ACh) was determined as 33%; at M3 muscarinic receptors (2.5D hydrogel, 100 μM ACh) it was 22%; at M3 muscarinic receptors (3D hydrogel, 50 μM ACh) it was 43%; on M3 muscarinic receptors (3D hydrogel, 100 μM ACh) it was 16%. At M3 muscarinic receptors (2.5D hydrogels, 50 μM), the “Time of calcium response peak” value is reported as roughly 5 min. The “Duration of calcium oscillations” value at M3 muscarinic receptors (2.5D hydrogels, 100 μM) was “over 20 min”; on M3 muscarinic receptors (3D hydrogels, 50 μM), “over 20 minutes”. In addition, the Calcium oscillations result at M3 muscarinic receptors (3D cultures, 100 μM) is listed as “induced similar oscillations”. In addition, the “Time until cells responded with increase in [Ca2+]” value was roughly 300 s on M3 muscarinic receptors (cells in 2.5D) and no more than 30 s at M3 muscarinic receptors (cells in 3D).
Take `CC(C)NCC(O)c1ccc(O)c(O)c1` (stereo not drawn) [isoproterenol, isoproterenol hydrochloride]: the α-Amylase localisation entry in the experiment with β adrenergic receptors (15 min) is “α-amylase near the membrane periphery”. In addition, the “Granule formation and α-amylase staining” value in the experiment with β adrenergic receptors (1 h, 2.5D and 3D) was “presence of granules and robust α-amylase staining”.
Consider `NC[C@H](O)c1ccc(O)c(O)c1` [norepinephrine, norepinephrine hydrochloride], for which the Secretory granules entry in the experiment on β adrenergic receptors (2.5D and 3D) is reported as “displayed multiple secretory granules”.
With VEGF, at HP, the equilibrium dissociation constant (Kd) is 165 nM.

B1: FGF7: heparin-binding growth factor (protein, UniProt P21781 32-194, looked up)
Fibroblast growth factor 7: CNDMTPEQMATNVNCSSPERHTRSYDYMEGGDIRVRRLFCRTQWYLRIDKRGKVKGTQEMKNNYNIMEIRTVAVGIVAIKGVESEFYLAMNKEGKLYAKKECNEDCNFKELILENHYNTYASAKWTHNGGEMFVALNQKGIPVRGKKTKKEQKTAHFLPMAIT
Consider B1, for which the Spheroid size entry in experiment [1] is given as “increases spheroid size”. Also, the Kd at HP was 30 to 49 nM.

One may read the Kd as the concentration at which binding is half-saturated.
